Experimental data reported in ChEMBL document CHEMBL1151271, “Phrygiasterol, a cytotoxic cyclopropane-containing polyhydroxysteroid, and related compounds from the pacific starfish Hippasteria phrygiana” (J Nat Prod, 2005).
≈ marks a conversion by molar mass, not a printed value.

Tests used:
Type in all cases: functional, cell-based
Ehrlich = assay: Induction of apoptosis in mouse EAC assessed as early apoptotic cell by Hoechst and PI staining
Splenocyte = assay: Inhibition of calcium influx in mouse splenocytes
[1] = Cytotoxicity against mouse EAC; conditions: Ehrlich

| EC50 (Ehrlich) [µg/mL] | EC50 (Splenocyte) [µg/mL] | Compound | IC50 [1] [µg/mL] |
| --- | --- | --- | --- |
| 70 (≈ 117 µM) | 20 (≈ 33.4 µM) | CO[C@@H]1[C@@H](O)[C@H](O[C@@H](CC[C@@H](C)[C@H]2C[C@H](O)[C@@H]3[C@]2(C)CC[C@@H]2[C@@]4(C)CC[C@H](O)C[C@@H]4[C@@H](O)C[C@]23O)C(C)C)OC[C@H]1O [BOREALOSIDE C] | – |
| – | – | C[C@H](CC[C@@H]1C[C@H]1CO)[C@H]1[C@@H](O)[C@H](O)[C@@H]2[C@]1(C)CC[C@@H]1[C@@]3(C)CC[C@H](O)C[C@@H]3[C@@H](O)C[C@]12O [PHRYGIASTEROL] | 50 (≈ 107 µM) |
| 70 | 20 | CO[C@@H]1[C@@H](O)[C@H](O[C@@H](CC[C@@H](C)[C@H]2C[C@H](O)[C@@H]3[C@]2(C)CC[C@@H]2[C@@]4(C)CC[C@H](O)C[C@@H]4[C@@H](O)C[C@]23O)C(C)C)OC[C@H]1OS(=O)(=O)[O-].[Na+] [PHRYGIOSIDE B] | – |
